SMILES strings stand for the structures. pEC50: −log10 of the molar value. The source made the active and inactive calls.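 How the source made its calls: active means EC50 at or below 33 µM; inactive means the rest.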

In the assay the test system is S. cerevisiae CIT2-GFP strain, flow cytometry GFP, 3 h. Nature of the assay: CIT2-GFP expression modulators in yeast, SAR follow-up, flow cytometry, KU analogs, dose response (AID 488827). On the technique in general: In flow cytometry, cells or beads pass a laser one at a time.
Take `Nc1nc(NCCc2ccccc2)nc(Nc2cccc(F)c2)c1[N+](=O)[O-]`: the EC50 was 93.3 µM (inactive). In the case of `CN1CCN(C(c2ccc(C(F)(F)F)cc2)c2ccc3cccnc3c2O)CC1` (configuration not stated), the EC50 is 87.1 µM (inactive). Same read-out and setting: as for `COc1ccc([N+](=O)[O-])c(S(=O)(=O)c2ccc(Cl)cc2)n1`, the figure is 124 µM (inactive); as for `Oc1c(I)cc(I)c2cccnc12`, 166 µM (inactive). Turning to `CNc1nc(N)c([N+](=O)[O-])c(Nc2ccccc2OC)n1`, the pEC50 is 5.40.

Take `CCOC(=O)CS(=O)(=O)c1nc(-c2ccccc2)cc(C(F)(F)F)n1`: the EC50 is 109 µM (inactive). For the compound `CNc1nc(N)c([N+](=O)[O-])c(Nc2ccc(F)cc2)n1`, the EC50 is 56.3 µM (inactive). On to `Nc1nc(Nc2cccc(F)c2)nc(Nc2cccc(F)c2)c1[N+](=O)[O-]`, for which the EC50 was 36.6 µM (inactive). On the same count and under the same terms, next, `CCOC(=O)CSC1=NC(=O)/C(=C\c2ccc(Cl)cc2)S1`: 120 µM (inactive). Same read-out and setting: as for `O=C(Oc1c(Cl)cc(Cl)c2cccnc12)c1cccc([N+](=O)[O-])c1`, the figure is 251 µM (inactive). On to `CNc1nc(N)c([N+](=O)[O-])c(Nc2cccc(Cl)c2)n1`, for which the pEC50 was 5.97. With `O=[N+]([O-])c1cc(Cl)c2cccnc2c1O`, the EC50 was 33 µM (inactive). Turning to `CNc1nc(N)c([N+](=O)[O-])c(Nc2cccc(F)c2)n1`, the pEC50 is 5.60. As for `O=C(Nc1nc(-c2ccccn2)cs1)c1cc2ccccc2o1`, the EC50 is 60.6 µM (inactive). Take `CNc1nc(N)c([N+](=O)[O-])c(Nc2ccccc2)n1`: the pEC50 was 4.72.

As for `CCOC(=O)CCS(=O)(=O)c1nc(-c2ccccc2)cc(C(F)(F)F)n1`, the EC50 is 107 µM (inactive).

`Clc1ccc(N=c2ssnc2Cl)cc1`: the EC50 is 81.1 µM (inactive).

Regarding `O=C1ON=C(c2ccccc2)/C1=C\c1ccco1`, the EC50 was 188 µM (inactive).

For the compound `O=C(Oc1c(Cl)cc(Cl)c2cccnc12)c1ccco1`, the EC50 was 87.4 µM (inactive).

With `O=S(=O)(CCN(CCS(=O)(=O)C(F)(F)F)CC1CCCO1)C(F)(F)F` (configuration not stated), the EC50 was 65.2 µM (inactive). In the case of `C/C(=N\NC(=O)c1ccc(C(C)(C)C)cc1)c1ccccn1`, the EC50 was 71 µM (inactive). In the case of `Cc1ccc(S(=O)(=O)c2ncccc2[N+](=O)[O-])cc1`, the EC50 is 191 µM (inactive). For the compound `CN(C)CCCNc1nc(N)c([N+](=O)[O-])c(Nc2cccc(F)c2)n1`, the EC50 was 279 µM (inactive).

`CC(C)(C)C(=O)NC(=S)NNC(=O)c1ccc(-c2ccccc2)cc1`: the EC50 was 66.9 µM (inactive). The same measure, in the same setting: as for `CSC1=NS(=O)(=O)c2c(C)nn(C)c2S1`, the figure is 294 µM (inactive); as for `Cc1ccc(C(c2cc(Cl)c3cccnc3c2O)N2CCN(C)CC2)cc1` (configuration not stated), 45.9 µM (inactive).

For the compound `Cc1c(C(=O)Nc2nc(-c3ccccn3)cs2)oc2ccccc12`, the EC50 was 161 µM (inactive). The same measure, in the same setting: next, `COc1ccc([N+](=O)[O-])c(S(=O)(=O)c2ccccc2)n1`: > 300 µM (inactive); `O=C(Oc1ccnc2cc(Cl)ccc12)N1CCCCCC1`: 298 µM (inactive). The same measure, in the same setting: as for `Cc1ccc(/C=C2/C(=O)ON=C2c2ccccc2)o1`, the figure is 39.6 µM (inactive); as for `Nc1nc(Nc2ccccc2)nc(Nc2cccc(F)c2)c1[N+](=O)[O-]`, 61.4 µM (inactive).

Consider `CNc1nc(N)c([N+](=O)[O-])c(NC2CCCCC2)n1`, for which the pEC50 is 5.43.

By EC50 is commonly meant the concentration needed to bring the measured effect to its halfway point. By pEC50 is commonly meant the negative decadic logarithm of the EC50, by convention in mol/L.

Source of the values: PubChem BioAssay AID488827 (NMMLSC, 2010).
